Experiments:
[1] = target: T1, human sphingosine-1-phosphate receptor 1 (S1P1) (Homo sapiens (Human), UniProt P21453); assay: Inhibition of cAMP production (HTRF cAMP HiRange), S1P1 CHO-K1 cells; assay type: cell-based; details: for Emax: CHO-K1, efficacy (SPAN) normalized to fingolimod, read-out: hS1P1 cAMP SPAN; for hS1P1 cAMP pEC50: inhibition of cAMP production, S1P1 CHO-K1 cells
In short: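 CHO-K1 cells stably co-expressing human S1P1 (C-terminal Prolink tag) and EA-β-arrestin2 were grown in AssayComplete Media 6 at 37° C. and 5% CO2, plated, and incubated overnight. Agonist-driven inhibition of intracellular cAMP was read by TR-FRET with the HTRF cAMP HiRange kit on a PheraStar reader. Potency is pEC50, and efficacy (SPAN) is normalized to fingolimod.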
Target sequence in this assay (P21453 whole entry, looked up): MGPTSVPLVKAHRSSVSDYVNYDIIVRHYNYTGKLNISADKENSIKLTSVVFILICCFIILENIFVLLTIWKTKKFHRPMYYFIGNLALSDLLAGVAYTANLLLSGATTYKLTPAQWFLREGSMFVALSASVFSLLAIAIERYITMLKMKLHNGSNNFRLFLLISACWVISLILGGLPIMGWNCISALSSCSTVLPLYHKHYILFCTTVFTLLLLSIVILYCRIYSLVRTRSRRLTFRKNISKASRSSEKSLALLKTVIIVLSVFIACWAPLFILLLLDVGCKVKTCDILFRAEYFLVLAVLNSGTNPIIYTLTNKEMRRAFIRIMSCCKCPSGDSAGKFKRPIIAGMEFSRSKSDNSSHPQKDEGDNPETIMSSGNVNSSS

[2] = target: T1, human sphingosine-1-phosphate receptor 1 (S1P1); assay: β-Arrestin2 recruitment assay (PathHunter), S1P1 CHO-K1 cells; assay type: cell-based; details: for Emax: CHO-K1, efficacy (SPAN) normalized to fingolimod, read-out: hS1P1 B-arrestin2 SPAN; for hS1P1 B-arrestin2 pEC50: β-arrestin2 recruitment, S1P1 CHO-K1 cells
In short: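 Enzyme-fragment complementation read-out: agonist-driven β-arrestin2 binding to ProLink-tagged human S1P1 in stable CHO-K1 cells restores β-galactosidase, measured 1 h at room temperature after a 60 min 37° C. compound incubation. Potency as pEC50, efficacy relative to fingolimod (SPAN).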
Target sequence in this assay (P21453 whole entry, looked up): as above
Target sequence in this assay (P32121 whole entry partner, looked up): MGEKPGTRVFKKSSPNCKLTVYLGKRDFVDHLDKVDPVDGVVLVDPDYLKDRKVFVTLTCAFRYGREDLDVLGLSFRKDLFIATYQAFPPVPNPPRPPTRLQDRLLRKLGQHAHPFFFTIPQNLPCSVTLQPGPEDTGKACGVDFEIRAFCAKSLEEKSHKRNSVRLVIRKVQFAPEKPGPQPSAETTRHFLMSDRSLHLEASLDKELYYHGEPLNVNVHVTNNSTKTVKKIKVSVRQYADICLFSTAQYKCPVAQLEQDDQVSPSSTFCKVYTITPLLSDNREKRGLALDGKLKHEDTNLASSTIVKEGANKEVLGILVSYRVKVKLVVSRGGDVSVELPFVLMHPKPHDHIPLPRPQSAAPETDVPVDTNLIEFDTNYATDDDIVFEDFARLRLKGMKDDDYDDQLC

Row | Emax [1] | hS1P1 cAMP pEC50 [1] | Emax [2] | hS1P1 B-arrestin2 pEC50 [2] | SMILES
1 | > 75% | >6.5 | > 75% | >5 | CCC1(CC)CC(=O)c2cc(-c3nc(-c4ccc(NC(C)=O)cc4)no3)ccc2O1 [Compound 209, N-(4-(5-(2,2-diethyl-4-oxochroman-6-yl)-1,2,4-oxadiazol-3-yl)phenyl)acetamide]
2 | < 75% | <6.5 | > 75% | >5 | CCC1(CC)CC(=O)c2cc(-c3nc(-c4ccc5[nH]cnc5c4)no3)ccc2O1 [Compound 211, 6-(3-(1H-benzo[d]imidazol-5-yl)-1,2,4-oxadiazol-5-yl)-2,2-diethylchroman-4-one]
3 | < 75% | <6.5 | < 75% | <5 | O=C1CC2(CCOCC2)Oc2ccc(-c3nc(-c4cccnc4)no3)cc21 [Compound 214, 6-[3-(pyridin-3-yl)-1,2,4-oxadiazol-5-yl]-3,4-dihydrospiro[1-benzopyran-2,4′-oxane]-4-one]
4 | – | <6.5 | – | <5 | O=C1CC2(CCC(F)(F)CC2)Oc2ccc(-c3nc(-c4ccncc4)no3)cc21 [Compound 217, 4′,4′-difluoro-6-[3-(pyridin-4-yl)-1,2,4-oxadiazol-5-yl]-3,4-dihydrospiro[1-benzopyran-2,1′-cyclohexane]-4-one]
5 | – | <6.5 | – | <5 | CCCC1(CCC)CC(=O)c2cc(-c3nc(-c4cccnc4)no3)ccc2O1 [Compound 218, 2,2-dipropyl-6-[3-(pyridin-3-yl)-1,2,4-oxadiazol-5-yl]-3,4-dihydro-2H-1-benzopyran-4-one]
6 | – | <6.5 | – | >5 | CCC1(CC)CC(=O)c2cc(-c3nsc(-c4ccccc4OC)n3)ccc2O1 [Compound 222, 2,2-diethyl-6-(5-(2-methoxyphenyl)-1,2,4-thiadiazol-3-yl)chroman-4-one]
7 | < 75% | <6.5 | < 75% | <5 | CCC1(CC)CC(=O)c2cc(-c3nnc(-c4ccc5c(c4)nnn5C(C)C)o3)ccc2O1 [Compound 223, 2,2-diethyl-6-(5-(1-isopropyl-1H-benzo[d][1,2,3]triazol-5-yl)-1,3,4-oxadiazol-2-yl)chroman-4-one]
8 | – | <6.5 | – | >5 | CCC1(CC)CC(=O)c2cc(-c3nc(-c4cccc(C)c4)no3)ccc2O1 [Compound 225, 2,2-diethyl-6-(3-(m-tolyl)-1,2,4-oxadiazol-5-yl)chroman-4-one]
9 | – | <6.5 | – | <5 | CCC1(CC)CC(=O)c2cc(-c3nc(-c4ccncc4F)no3)ccc2O1 [Compound 226, 2,2-diethyl-6-(3-(3-fluoropyridin-4-yl)-1,2,4-oxadiazol-5-yl)chroman-4-one]
10 | – | >6.5 | – | <5 | CCC1(CC)CC(=O)c2cc(-c3nc(-c4cccc(O)c4)no3)ccc2O1 [Compound 227, 2,2-diethyl-6-[3-(3-hydroxyphenyl)-1,2,4-oxadiazol-5-yl]chroman-4-one]
11 | – | <6.5 | – | <5 | COc1cccc(-c2noc(-c3ccc4c(c3)nnn4C(C)C)n2)c1 [Compound 228, 5-(1-isopropyl-1H-benzo[d][1,2,3]triazol-5-yl)-3-(3-methoxyphenyl)-1,2,4-oxadiazole]

Further lines, the compound ahead of its results:

Row | SMILES | Emax [1] | hS1P1 cAMP pEC50 [1] | Emax [2] | hS1P1 B-arrestin2 pEC50 [2]
12 | Cc1ccccc1Cc1noc(-c2ccc3c(c2)nnn3C(C)C)n1 [Compound 202, 5-{3-[(2-methylphenyl)methyl]-1,2,4-oxadiazol-5-yl}-1-(propan-2-yl)-1H-1,2,3-benzotriazole] | < 75% | <6.5 | < 75% | <5
13 | COc1cccnc1-c1noc(-c2ccc3c(c2)nnn3C2CCCC2)n1 [Compound 203, 1-cyclopentyl-5-[3-(3-methoxypyridin-2-yl)-1,2,4-oxadiazol-5-yl]-1H-1,2,3-benzotriazole] | < 75% | <6.5 | > 75% | <5
14 | Cc1cc(C)cc(-c2noc(-c3ccc4c(c3)nnn4C(C)C)n2)c1 [Compound 204, 5-[3-(3,5-dimethylphenyl)-1,2,4-oxadiazol-5-yl]-1-(propan-2-yl)-1H-1,2,3-benzotriazole] | > 75% | <6.5 | > 75% | >5
15 | CCCn1nnc2cc(-c3nc(-c4ccncc4)no3)ccc21 [Compound 205, 1-propyl-5-[3-(pyridin-4-yl)-1,2,4-oxadiazol-5-yl]-1H-1,2,3-benzotriazole] | > 75% | <6.5 | < 75% | <5
16 | Cc1ccncc1-c1noc(-c2ccc3c(c2)nnn3CC(C)(C)O)n1 [Compound 206, 2-methyl-1-{5-[3-(4-methylpyridin-3-yl)-1,2,4-oxadiazol-5-yl]-1H-1,2,3-benzotriazol-1-yl}propan-2-ol] | > 75% | <6.5 | < 75% | <5
17 | COc1ccccc1-c1noc(-c2ccc3c(c2)nnn3C(C)(C)C)n1 [Compound 207, 1-tert-butyl-5-[3-(2-methoxyphenyl)-1,2,4-oxadiazol-5-yl]-1H-1,2,3-benzotriazole] | > 75% | >6.5 | > 75% | >5
18 | C=CCNc1ccc(-c2nc(-c3ccc4[nH]ccc4c3)no2)cc1C#N [Compound 208, 5-(3-(1H-indol-5-yl)-1,2,4-oxadiazol-5-yl)-2-(allylamino)benzonitrile] | > 75% | >6.5 | > 75% | >5
19 | COc1ccccc1-c1nsc(-c2ccc3c(c2)nnn3C(C)C)n1 [Compound 213, 5-[3-(2-methoxyphenyl)-1,2,4-thiadiazol-5-yl]-1-(propan-2-yl)-1H-1,2,3-benzotriazole] | – | <6.5 | – | <5
20 | CC(C)n1nnc2cc(-c3ncc(-c4ccccc4C(F)(F)F)s3)ccc21 [Compound 215, 2-(1-isopropyl-1H-benzo[d][1,2,3]triazol-5-yl)-5-(2-(trifluoromethyl)phenyl)thiazole] | < 75% | <6.5 | < 75% | <5
21 | Cc1ccccc1-c1cnc(-c2ccc3c(c2)nnn3C(C)C)s1 [Compound 216, 2-(1-isopropylbenzotriazol-5-yl)-5-(o-tolyl)thiazole] | < 75% | <6.5 | < 75% | <5
22 | CC(C)n1nnc2cc(-c3ncc(-c4ccccc4Br)s3)ccc21 [Compound 220, 5-(2-bromophenyl)-2-(1-isopropylbenzotriazol-5-yl)thiazole] | – | <6.5 | – | <5
23 | Cc1cncc(-c2nc(-c3ccc4c(c3)nnn4C(C)C)no2)n1 [Compound 229, 3-(1-isopropyl-1H-benzo[d][1,2,3]triazol-5-yl)-5-(6-methylpyrazin-2-yl)-1,2,4-oxadiazole] | – | <6.5 | – | >5

Source: patent publication US11912693B2, “Compounds for modulating S1P1 activity and methods of using the same” (TREVENA, INC., priority 2017, dated 2024)
